What was measured:
[1] = system: human platelet rich plasma; assay: Inhibition of human platelet aggregation, "Born"-method using single cuvettes; type: cell-based; details: 0.1 h, ADP-induced aggregation, 6 minutes
Protocol: Inhibition of Human Platelet Aggregation
Alternatively to a binding assay which measures a compound's ability to bind to the P2Y12 receptor, the effect on cellular function was also determined. This ability of the compound was evaluated in two platelet aggregation assays: in 96-well plates and with the “Born”-method using single cuvettes.
Whole blood was collected from healthy volunteers using 20 ml syringes containing 2 ml of buffered Citrate. The anticoagulated whole blood was transferred into 15 ml polypropylene conical tubes (10 ml per tube). The tubes were centrifuged for 15 minutes at 340×g at RT without using the centrifuge brake. This procedure leads to a pellet of cellular components and a supernatant of platelet rich plasma (PRP). The PRP layer was collected from each tube and pooled for each donor. To avoid carry over of cellular components following centrifugation, approximately 5 ml of PRP was left in the tube. The platelet concentration was determined using a Coulter Counter.
The 15 ml tubes containing the pellet of cellular components were centrifuged again for 10 minutes at 1940×g. This pelleted out most particulate blood constituents remaining, leaving a layer of Platelet Poor Plasma (PPP). The PPP was collected for each donor. The PRP layer, previously set aside, was diluted with PPP to a final concentration of approximately 3×E8 platelets/ml with the PPP.
The human platelet aggregation assay is performed in single use cuvettes using the platelet aggregation profiler (PAP-4 or -8, Bio/Data corporation).
In the assay cuvette 4 μl of test compound at 100× final concentration in DMSO is mixed with 392 μl fresh PRP and incubated for 2 minutes at 37° C. with 1.200 rpm stirring. Following that incubation period, 4 μl of 250 μM ADP is added to the reaction mix. This addition of ADP is sufficient to induce aggregation in the absence of an inhibitor. After that aggregation is measured over 6 minutes at 37° C. with 1.200 rpm stirring. Results of the assay are expressed as % inhibition, and are calculated using maximum aggregation (Tmax) or area under curve (AUC) of the absorbance over 6 minutes.
The IC50 data of the above described platelet aggregation assay using human platelet rich plasma for exemplary compounds of the present invention are shown in table 3.

[2] = system: human platelet rich plasma; assay: Inhibition of human platelet aggregation, 96-well assay; type: cell-based; details: Homo sapiens, Platelet, 20 min
In short: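 ADP-induced aggregation read as 650 nm absorbance every minute for 20 min at 37 °C, with shaking between reads. PRP (~3×E8 platelets/ml, diluted with PPP, ACD-A blood from healthy volunteers) was exposed to compound for 5 min before adding a 40 μM ADP stock (15 μl into 150 μl).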

[3] = target: human P2Y12 receptor (Homo sapiens, UniProt Q9H244); assay: Human P2Y12 recombinant cell membrane binding assay with 33P 2MeS-ADP; details: competition against 33P 2MeS-ADP, membranes of CHO cells with recombinant human P2Y12 receptor
Chain of human P2Y12 receptor (Q9H244 whole entry): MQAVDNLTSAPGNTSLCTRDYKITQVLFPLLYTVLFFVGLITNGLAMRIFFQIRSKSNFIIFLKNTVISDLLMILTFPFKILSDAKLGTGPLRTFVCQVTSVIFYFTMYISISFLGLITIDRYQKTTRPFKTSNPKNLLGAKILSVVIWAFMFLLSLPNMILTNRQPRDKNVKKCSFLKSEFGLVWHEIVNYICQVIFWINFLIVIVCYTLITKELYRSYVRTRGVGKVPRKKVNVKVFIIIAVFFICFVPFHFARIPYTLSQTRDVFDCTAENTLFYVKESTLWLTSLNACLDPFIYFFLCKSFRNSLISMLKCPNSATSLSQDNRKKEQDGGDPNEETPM
In short: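 CHO membranes expressing human P2Y12 (20 μg/ml stock) preincubated 15 min at RT with compound in HEPES pH 7.4 buffer, then 33P 2MeS-ADP (1.61 nM working solution) added for 20 min at RT. Bound label filtered and counted; four-point, five-fold series from 10 μM final, triplicate, four-parameter fit.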

Row | SMILES | IC50 [1] [nM] | IC50 [2] [nM] | IC50 [3] [nM]
1 | CCOC(=O)N1CCN(C(=O)[C@H](CCC(=O)O)NC(=O)c2cc(OCC(=O)N3CCC[C@H]3c3nc(C)no3)n(-c3ccccc3)n2)CC1 [Example 174, 4-{(S)-4-Carboxy-2-[(5-{2-[(S)-2-(3-methyl-[1,2,4]oxadiazol-5-yl)-pyrrolidin-1-yl]-2-oxo-ethoxy}-1-phenyl-1H-pyrazole-3-carbonyl)-amino]-butyryl}-piperazine-1-carboxylic acid ethyl ester] | 2220 | 760 | 
2 | CCCCNC(=O)[C@@H]1CCCN1C(=O)COc1cc(C(=O)N[C@@H](CCC(=O)O)C(=O)N2CCN(C(=O)OCC)CC2)nn1-c1ccccc1 [Example 11, 4-{(S)-4-Carboxy-2-[(5-{2-[(S)-2-butylcarbamoyl-pyrrolidin-1-yl]-2-oxo-ethoxy}-1-phenyl-1H-pyrazole-3-carbonyl)-amino]-butyryl}-piperazine-1-carboxylic acid ethyl ester] | 120 | 30 | 
3 | CCOC(=O)N1CCN(C(=O)[C@H](C)NC(=O)c2cc(OCC(=O)N3CCC[C@H]3C(=O)NC3CCC3)n(-c3ccccc3)n2)CC1 [Example 185, 4-[(S)-2-({5-[2-((S)-2-Cyclobutylcarbamoyl-pyrrolidin-1-yl)-2-oxo-ethoxy]-1-phenyl-1H-pyrazole-3-carbonyl}-amino)-propionyl]-piperazine-1-carboxylic acid ethyl ester] | 90 |  | 
4 | CCOC(=O)N1CCN(C(=O)[C@H](CC(O)CO)NC(=O)c2cc(OCC(=O)N3CCC[C@H]3C(=O)NC3CCC3)n(-c3ccccc3)n2)CC1 (stereo partly drawn) [Example 117, 4-[(S)-2-({5-[2-((S)-2-Cyclobutylcarbamoyl-pyrrolidin-1-yl)-2-oxo-ethoxy]-1-phenyl-1H-pyrazole-3-carbonyl}-amino)-4,5-dihydroxy-pentanoyl]-piperazine-1-carboxylic acid ethyl ester] | 220 |  | 
5 | CCOC(=O)N1CCN(C(=O)[C@H](CCC(=O)O)NC(=O)c2cc(OCC(=O)N3CCC[C@H]3C(=O)NCC3CC3)n(-c3ccccc3)n2)CC1 [Example 16, 4-{(S)-4-Carboxy-2-[(5-{2-[(S)-2-(cyclopropylmethyl-carbamoyl)-pyrrolidin-1-yl]-2-oxo-ethoxy}-1-phenyl-1H-pyrazole-3-carbonyl)-amino]-butyryl}-piperazine-1-carboxylic acid ethyl ester] | 46 |  | 
6 | CCOC(=O)N1CCN(C(=O)[C@H](CCC(=O)O)NC(=O)c2cc(OCC(=O)N3CCC[C@H]3C(=O)NC3CC3)n(-c3cccc(F)c3)n2)CC1 [Example 71, 4-((S)-4-Carboxy-2-{[5-[2-((S)-2-cyclopropylcarbamoyl-pyrrolidin-1-yl)-2-oxo-ethoxy]-1-(3-fluoro-phenyl)-1H-pyrazole-3-carbonyl]-amino}-butyryl)-piperazine-1-carboxylic acid ethyl ester] |  | 710 | 192
7 | O=C(O)CC[C@H](NC(=O)c1cc(OCC(=O)N2CCC[C@H]2C(=O)NC2CCC2)n(-c2ccccc2)n1)C(=O)N1CCN(C(=O)OCc2ccccc2)CC1 [Example 159, 4-[(S)-4-Carboxy-2-({5-[2-((S)-2-cyclobutylcarbamoyl-pyrrolidin-1-yl)-2-oxo-ethoxy]-1-phenyl-1H-pyrazole-3-carbonyl}-amino)-butyryl]-piperazine-1-carboxylic acid benzyl ester] |  | 120 | 15
8 | CCOC(=O)CC[C@H](NC(=O)c1cc(OCC(=O)N2CCC[C@H]2C(=O)NC2CCC2)n(-c2ccccc2)n1)C(=O)N1CCN(C(=O)OCC)CC1 [Example 127, 4-[(S)-2-({5-[2-((S)-2-Cyclobutylcarbamoyl-pyrrolidin-1-yl)-2-oxo-ethoxy]-1-phenyl-1H-pyrazole-3-carbonyl}-amino)-4-ethoxycarbonyl-butyryl]-piperazine-1-carboxylic acid ethyl ester] |  | 440 | 37
9 | CCOC(=O)N1CCN(C(=O)[C@H](CCC(=O)O)NC(=O)c2cc(OCC(=O)N3CCC[C@H]3C(=O)NCC(F)F)n(-c3cccc(F)c3)n2)CC1 [Example 76, 4-((S)-4-Carboxy-2-{[5-[2-((S)-2-(2,2-difluoroethylcarbamoyl)-pyrrolidin-1-yl)-2-oxo-ethoxy]-1-(3-fluoro-phenyl)-1H-pyrazole-3-carbonyl]-amino}-butyryl)-piperazine-1-carboxylic acid ethyl ester] |  | 170 | 28
10 | CCOC(=O)N1CCN(C(=O)[C@H](CCNS(=O)(=O)C(F)(F)F)NC(=O)c2cc(OCC(=O)N3CCC[C@H]3C(=O)NC3CCC3)n(-c3ccccc3)n2)CC1 [Example 188, 4-[(S)-2-({5-[2-((S)-2-Cyclobutylcarbamoyl-pyrrolidin-1-yl)-2-oxo-ethoxy]-1-phenyl-1H-pyrazole-3-carbonyl}-amino)-4-trifluoromethanesulfonylamino-butyryl]-piperazine-1-carboxylic acid ethyl ester] |  | 490 | 10
11 | CCOC(=O)N1CCN(C(=O)[C@H](CCC(=O)O)NC(=O)c2cc(OCC(=O)N3CCC[C@H]3C(=O)NCC3CC3)n(-c3cccc(F)c3)n2)CC1 [Example 74, 4-((S)-4-Carboxy-2-{[5-[2-((S)-2-cyclopropylmethylcarbamoyl-pyrrolidin-1-yl)-2-oxo-ethoxy]-1-(3-fluoro-phenyl)-1H-pyrazole-3-carbonyl]-amino}-butyryl)-piperazine-1-carboxylic acid ethyl ester] |  | 260 | 182
12 | CCCCOC(=O)N1CCN(C(=O)[C@H](CCC(=O)OC)NC(=O)c2cc(OCC(=O)N3CCC[C@H]3C(=O)NC3CCC3)n(-c3ccccc3)n2)CC1 [Example 191, 4-[(S)-2-({5-[2-((S)-2-Cyclobutylcarbamoyl-pyrrolidin-1-yl)-2-oxo-ethoxy]-1-phenyl-1H-pyrazole-3-carbonyl}-amino)-4-methoxycarbonyl-butyryl]-piperazine-1-carboxylic acid butyl ester] |  | 380 | 6
13 | CCOC(=O)N1CCN(C(=O)[C@H](CCC(=O)OC2CCC2)NC(=O)c2cc(OCC(=O)N3CCC[C@H]3C(=O)NC3CCC3)n(-c3ccccc3)n2)CC1 [Example 131, 4-[(S)-2-({5-[2-((S)-2-Cyclobutylcarbamoyl-pyrrolidin-1-yl)-2-oxo-ethoxy]-1-phenyl-1H-pyrazole-3-carbonyl}-amino)-4-cyclobutoxycarbonyl-butyryl]-piperazine-1-carboxylic acid ethyl ester] |  | 740 | 54
14 | CCOC(=O)N1CCN(C(=O)[C@H](CCC(=O)OCC2CCCO2)NC(=O)c2cc(OCC(=O)N3CCC[C@H]3C(=O)NC3CCC3)n(-c3ccccc3)n2)CC1 (stereo partly drawn) [Example 199, 4-[(S)-2-({5-[2-((S)-2-Cyclobutylcarbamoyl-pyrrolidin-1-yl)-2-oxo-ethoxy]-1-phenyl-1H-pyrazole-3-carbonyl}-amino)-4-(tetrahydro-furan-2-ylmethoxycarbonyl)-butyryl]-piperazine-1-carboxylic acid ethyl ester] |  | 920 | 139
15 | CCOC(=O)N1CCN(C(=O)[C@H](CNC(C)=O)NC(=O)c2cc(OCC(=O)N3CCC[C@H]3C(=O)NC3CCC3)n(-c3ccccc3)n2)CC1 [Example 87, 4-[(S)-3-Acetylamino-2-({5-[2-((S)-2-cyclobutylcarbamoyl-pyrrolidin-1-yl)-2-oxo-ethoxy]-1-phenyl-1H-pyrazole-3-carbonyl}-amino)-propionyl]-piperazine-1-carboxylic acid ethyl ester] |  | 1130 | 184
16 | CCOC(=O)N1CCN(C(=O)[C@H](CF)NC(=O)c2cc(OCC(=O)N3CCC[C@H]3C(=O)NC3CCC3)n(-c3ccccc3)n2)CC1 [Example 261, 4-[(R)-2-({5-[2-((S)-2-Cyclobutylcarbamoyl-pyrrolidin-1-yl)-2-oxo-ethoxy]-1-phenyl-1H-pyrazole-3-carbonyl}-amino)-3-fluoro-propionyl]-piperazine-1-carboxylic acid ethyl ester] |  | 60 | 18

From patent US8426420B2, “Heterocyclic pyrazole-carboxamidesas P2Y12 antagonists” (Sanofi, priority 2007, dated 2013)
